Here are results for five compounds from article PMC9673917 (ACS Infectious Diseases, 2022).

In series [1] the test system is ACE2/RBD. The note with it: read-out: IC50 as ACE2/RBD binding inhibitor, AlphaLISA; ref 16 (Hanson et al.); cited from earlier work. (Alpha assays give light when donor and acceptor beads are brought close together.)
Series [2] addresses RBD-Fc/ACE2-Strep (Severe acute respiratory syndrome coronavirus 2, UniProt P0DTC2). Kind of series: biochemical. It is filed as binding, SARS-CoV-2 S protein; human ACE2.
Series [3] concerns Calu-3 and HEK293-ACE2 cells. The note with it: Calu-3 and HEK293-ACE2 cell lines.
Series [4] has as its system ACE2/RBD interaction. The following applies: up to 100 μM; cell-free ELISA-type assays; RBD residues 319–541; ref 14 (Bojadzic et al.); cited from earlier work. In general terms: ELISA stands for enzyme-linked immunosorbent assay.
The subject of series [5] is ACE2/RBD interaction. The note with it: 150 μM; RBD residues 319–541; ref 11 (Ao et al.); cited from earlier work.
The test system of series [6] is spike protein. The note with it: Calu-3 cell line; cited from earlier work.

In the case of `O=C(O[C@@H]1O[C@@H]2COC(=O)c3cc(O)c(O)c(O)c3-c3c(cc(O)c(O)c3O)C(=O)O[C@H]([C@H]1O)[C@@H]2O)c1cc(O)c(O)c(O)c1` [corilagin], in series [1], the IC50 was 5.5 µM.
Compound `CCCCCCCC/C=C\CCCCCCCC(=O)O` [oleic acid] yielded an IC50 in series [2] of 35.3 µM. Also, in series [3], the “cytotoxicity over active concentration ranges” value is on record as “low to moderate cytotoxicity”.
Turning to `Cc1ccc(C(=O)Nc2ccc(S(=O)(=O)O)c3cc(S(=O)(=O)O)cc(S(=O)(=O)O)c23)cc1NC(=O)c1cccc(NC(=O)Nc2cccc(C(=O)Nc3cc(C(=O)Nc4ccc(S(=O)(=O)O)c5cc(S(=O)(=O)O)cc(S(=O)(=O)O)c45)ccc3C)c2)c1` [suramin], the “inhibition of the ACE2/RBD interaction” value in series [4] is “did not inhibit”. Moreover, the “inhibition of ACE2/RBD interaction” value in series [5] was “around 50%”. Further, the “cytotoxicity over active concentration ranges” value in series [3] is listed as “low to moderate cytotoxicity”.
“REGN10933: monoclonal antibody that targets the spike protein”: in series [6], the neutralization efficacy entry is “potent neutralization efficacy”.
With “REGN10987: monoclonal antibody that targets the spike protein”, the neutralization efficacy result in series [6] is “potent neutralization efficacy”.
